For this assay, the system named is ear edema (croton oil irritant mixture). In words: anti-inflammatory activity against croton oil-induced ear edema (based on Tonelli et al), topical. Format: in vivo, Sprague-Dawley female rats. Conditions: right ear, in irritant mixture, 6 hours. The method, then:
Compounds of formula I were tested for anti-inflammatory activity by the following procedure based on Tonelli et al, Endocrinology 77, 625 (1965):
Sprague-Dawley female rats, weighing 60 to 70 grams, are used in groups of 10. Ear edema is induced by inuncting both sides of the ear with an irritant mixture. This mixture containing 1% croton oil, 20% pyridine, 5% water and 74% diethyl ether, with or without test compound, is applied only once and only to the right ear. Six hours later the animals are sacrificed; a 9 mm diameter portion of both ears is punched out with a cork borer and weighed. The anti-inflammatory activity of the test agent is assessed by expressing the percent of the difference in average weight increase between the ears of the control groups and of the treated group. [formula]
Results found for representative compounds of formula I are tabulated below, together with results found in 3 tests for the preferred compound reported by Brown et al in J. Med. Chem.(loc-cit)namely 4-(p-chlorophenyl)-2-phenylthiazole-5-acetic acid (B): […]

Several values for one entry are separate records, joined by “and”; a condition that tells them apart may be missing. Identical values can stand only once.

Take `O=C(O)Cc1sc(-c2ccccc2)nc1-c1ccc(Cl)cc1` [4-(p-chlorophenyl)-2-phenylthiazole-5-acetic acid, reference compound]: the “% Inhibition” value is 93% and 79% and 89% (dose 2.5 mg); 92% and 93% (dose 5 mg).
Regarding `CCCCC(=O)Oc1ccc(-c2nc(-c3ccc(Cl)cc3)c(CC(=O)O)s2)cc1` [R = COC4 H9, 4-(4-Chlorophenyl)-2-(4-Valeryloxyphenyl)thiazole-5-acetic acid], the “% Inhibition” value (dose 50 μg) is 41%, the “% Inhibition” value (dose 500 μg) came out at 54%, the “% Inhibition” value (dose 2.5 mg) is on record as 71% and the “% Inhibition” value (dose 5 mg) was 87%.
The corresponding values for `CC(=O)Oc1ccc(-c2nc(-c3ccc(Cl)cc3)c(CC(=O)O)s2)cc1` [R = COCH3, 2-(4-Acetoxyphenyl)-4-(4-chlorophenyl)thiazole-5-acetic acid] are -14%, 41%, 85% and 100%.

A word on the % Inhibition: it is the relative decrease from the control value, in per cent.

Values taken from patent US4356185A, “Thiazoles” (John Wyeth & Brother Limited, priority 1980, dated 1982).
